# Experimental data from patent publication US20090214500A1, “PREVENTION AND TREATMENT OF OSTEOCHONDROSIS IN ANIMALS AND HUMANS” (U.S. Borax Inc., priority 2005, published 2009).
# “Also recorded” adds a separate entry of the source.
# Tests used:
# Duroc and Yorkshire pigs = experiment: Boron supplementation and OC-associated lameness in swine (Example 1); format: in vivo, pig
# Method: The basal diet consisted of commercial corn-soy diet containing 10 ppm boron.
# Test diet group B was fed a basal diet plus 25 mg/kg boron as sodium borate decahydrate (borax). Test diet group A was fed a basal diet plus 25 mg/kg boron as sodium borate decahydrate (borax) and 250 mg/kg ascorbic acid.
# Pigs were weighed at the beginning of the study, 4 weeks later and every 3 weeks until the end of the study. Animals were scored for soundness on a 5-point scale at each weighing. (Five-point scale: 1=no soundness defects; 2=minor soundness issues but still sound enough for retention as breeding animal; 3=not sound enough for retention for breeding but still marketable; 4=unsound, likely to be rejected at slaughter; 5=severely lame, requiring euthanasia for humane reasons.) Grading was done by the caretaker and the investigator at all weighing times. An experienced independent treatment-blind rater also evaluated the soundness of each animal and the ratings he provided were compared with the ratings of the caretaker and investigator by use of Cohen's Kappa test.
# The animals were housed in a modern curtain sided barn with deep straw bedding, with ad libitum access to feed and water. Waterers and feeders were on a concrete pad but the remainder of the flooring was deep straw over a ground limestone and sand base. Floor space allowances exceeded the recommendations of the Guide for the Care and Use of Agricultural Animals in Agricultural Research and Teaching, First Revised Edition, 1999. Federation of Animal Science Societies. Savoy, Ill.
# The basal diet (no boron supplemented) was analysed and found to contain boron at the rate of 10 ppm which is typical for a corn-soybean meal based diet.
# At the end of the study the pigs were transported to a laboratory where they were euthanized and necropsied. […]
# At necropsy, samples of liver, heart, kidney, fat, skeletal muscle, proximal tibia, blood, and the rostral snout were retained and frozen at −40° C. prior to chemical analysis. All joints of the axial skeleton were evaluated for the presence of gross lesions of osteochondrosis and graded on a 5 point scale. […]
# Mean joint lesion scores, growth rate and soundness scores by treatment and by factors boron and ascorbate were compared using an analysis of variance and t-test as appropriate. Soundness scores were dichotomised into binary categorical variables for lameness (soundness score>2) and for absence of defects (soundness<2), and the binary variables analysed by chi-square and logistic regression.
# Tissue specimens stained with H&E were examined microscopically for the presence of lesions of osteochondrosis. […] Each tissue section was scored by a treatment-blind board-certified pathologist.
# sows [1] = experiment: Sow and litter trial in a commercial swine operation during a PRRSV outbreak; format: in vivo, pig; details: sows given oral 1 mg boron per pound BW per day
# Method: To test the effect of boron on sows and their litters, a trial was established in a large commercial swine operation during an outbreak of porcine viral reproductive and respiratory disease (PRRSV). Boron was administered orally to a group of 51 sows individually housed in crates at the rate of 1 mg boron per pound BW per day beginning 1 week prior to farrowing and continuing until the piglets were weaned at 14 days of age. […] Boron treatment was supplied as a single daily dosing and was discontinued at weaning. All sows were fed a standard commercial sow diet.
# [2] = format: in vivo; details: one pig of about 85 pounds kept on boron 50 ppm plus ascorbate 125 ppm
# Method: (§1) Boron was added to the diet of sows at 1 mg/kg body weight as boric acid. […] Among a group of 95 piglets the birth to weaning mortality was 2 piglets. The usual mortality for this farm was about 5 to 7%. These piglets remained on boron 50 ppm plus ascorbate 125 ppm. One pig was euthanized and examined at a weight of about 85 pounds. […] All bones of the appendicular skeleton were sectioned on the band saw.
# pigs [3] = experiment: 3-NPB with or without supplemental boron in pigs, lameness and joint lesions; details: for Clinical Lameness Score Normal, count of pigs / Clinical Lameness Score Visible Lameness, count of pigs: 5 pigs
# Method: The pigs were evaluated for lameness daily and euthanized on day 13 and the joints and other organs were examined.
# sows [4] = experiment: Preliminary pilot study, oral boron supplement to gestating and lactating sows; details: sows given oral 1 mg boron per kg body weight; first 600 pigs, preliminary analysis
# Method: (§2) Sows were fed a standard corn-soy diet. Half of the sows received an oral administration of a boron supplement to provide 1 mg boron per kg body weight.
# sows [5] = experiment: Observation in sows fed 50 ppm supplemental boron in late gestation and early lactation; details: sow diets with 50 ppm supplemental boron
# Method: as §2
# sows [6] = format: in vivo
# Method: as §1
# pigs [7] = details: 50 ppm boron as boric acid
# Description: An Iowa farm treated a group of about 100 pigs with 50 ppm boron as boric acid.
# [8] = 50 ppm added B in diet, 28 days, 12 pens
# [9] = supplemental boron 50 mg/kg vs 0, p<0.05
# [10] = boron supplementation 50 ppm together with 3-NPB 1 gram daily × 10 days
# [11] = boron supplementation 50 ppm, 3-NPB none
smiles,measurement,setting,value
[B] [Boron],joint health compared with basal diet with no supplemental boron (FIG. 1),"Duroc and Yorkshire pigs; basal diet plus 25 mg/kg boron as sodium borate decahydrate (borax), with or without 250 mg/kg ascorbic acid",healthier joints
same,incidence of osteochondrosis-associated lameness,"Duroc and Yorkshire pigs; growing swine, 25 mg/kg boron as borax in feed",effective in reduction of the incidence of osteochondrosis-associated lameness
same,occurrence of osteochondrosis (OC),"Duroc and Yorkshire pigs; pigs, supplemental boron 25 ppm to 50 ppm in feed, FIGS. 1, 3 and 4",reduction in the occurrence of osteochondrosis; also recorded: significant reduction in the occurrence of OC
same,soundness scores / lameness associated with early rapid growth (FIG. 3),"Duroc and Yorkshire pigs; rapidly growing swine, 25 mg/kg boron as borax in feed, 25 mg/kg",useful in cartilage protection and prevention of lameness; also recorded: reduction of soundness scores associated with early growth
same,effect on litter size at birth,sows [1],no effects
same,effect on piglet birth weight,sows [1],no effects
same,likelihood to conceive relative to control sows,sows [1],1.2 times
same,"return to estrus, average days quicker than control sows",sows [1],1.6 days
same,piglet mortality,sows [1]; from 1 week prior to farrowing until weaning,15.2%
same,piglet weight at 12 days of age,sows [1]; from 1 week prior to farrowing until weaning at 14 days,9.01 lbs
same,bone mineralization at necropsy,[2],excellent mineralization
same,joint abnormalities at necropsy,[2],No abnormalities were observed in any of the joints
same,Average daily gain (grams per day),crossbred pigs; [8],549 grams per day
same,Avg. daily feed intake,crossbred pigs; [8],1270
same,Feed Conversion Ratio (feed/gain),crossbred pigs; [8],2.32 feed/gain
same,reduction of phosphorus excretion per unit of production,"crossbred pigs; boron added to the diet, compared with no added boron",15%
same,effect on average daily gain,crossbred pigs; [9],increased
same,effect on fecal phosphorus excretion per unit of growth,crossbred pigs; [9],reduced
same,effect on feed conversion ratio,crossbred pigs; [9],improved
same,effect on phosphorus digestibility,crossbred pigs; [9],improved
same,effect on daily feed intake,"crossbred pigs; supplemental boron 50 mg/kg vs 0, p>0.20",not significantly modified
same,"Clinical Lameness Score Normal, count of pigs",pigs [3]; [10],4
same,"Clinical Lameness Score Visible Lameness, count of pigs",pigs [3]; [10],1
same,"Clinical Lameness Score Normal, count of pigs",pigs [3]; [11],5
same,"Clinical Lameness Score Visible Lameness, count of pigs",pigs [3]; [11],0
same,effect of supplemental boron in preventing the lameness induced by 3-NPB,pigs [3]; chi-square analysis,significant effect; also recorded: could be prevented
same,pigs that developed lameness,pigs [3]; supplemental boron 50 ppm when 3-NPB was provided,one in 5
same,"prevalence and severity of osteochondrosis lesions in shoulder, stifle, hock and elbow joints","pigs [3]; supplemental boron, no 3-NPB",lowest prevalence of lesions and the lowest severity
same,piglet weight at 12 days of age,sows [4],8.5 pounds
same,pre-weaning mortality,sows [4],16%
same,"piglet quality as assessed by uniformity, growth, and general thrift",sows [5],improved
same,pre-weaning piglet mortality,sows [5],reduced
OB(O)O [boric acid],birth to weaning mortality,"sows [6]; pig, in vivo",2 piglets
same,outcome of three noticeably and seriously lame sows,"sows [6]; sows, boron 1 mg/kg body weight as boric acid in diet",became perfectly sound
same,growth rate,pigs [7],excellent growth rate
same,lameness/unsoundness rate in the test group,pigs [7]; estimated previous rate about 25 to 30%,zero
same,pigs developing signs of lameness or unsoundness,pigs [7]; about 100 pigs,None
